Test results: patent US8835377B2, “Oral delivery of peptide pharmaceutical compositions” (UGP Therapeutics, Inc., priority 2004, dated 2014)
Where two headings read alike, the source gives them in different places.

Assay: Pharmacokinetics after duodenal injection of unformulated or formulated Dmt-DALDA in anesthetized rats (plasma, HPLC-UV)
Assay type: in vivo
Details: for Tmax / Cmax / AUC: Unformulated; for Cmax / AUC: rat; for AUC: trapezoidal rule; for Dmt-DALDA plasma concentration: unformulated
Protocol: In the experiments represented in the subject Figure, six anesthetized rats (which were color-coded as: red, white, blue, orange, green and yellow) were given 0.7 mL Dmt-DALDA (1.6 mg/mL) with a syringe through a 27 gauge needle into the duodenum. This injection procedure was followed due to the technical difficulty inherent in preparing capsules which can be swallowed by small animals the size of a rat. The intraduodanal injection, therefore, mimics the release of the components of an enteric-coated capsule formulation which would pass through the esophagus and stomach and release its contents in the duodenum. Three of the rats (red, white and blue) were given Unformulated Dmt-DALDA in which there were no additional components (i.e., other than the Dmt-DALDA), while the other three rats (orange, green and yellow) were given Formulated Dmt-DALDA which included, in addition to the Dmt-DALDA, 0.5M citric acid and lauroyl carnitine (10 mg/ml). Samples of blood were taken from the carotid artery through an indwelling catheter before and 5, 15, 30, 60 and 120 minutes after the administration of the respective formulations (i.e., Formulated and Unformulated). The blood samples were centrifuged and the resulting plasma supernatants were stored frozen at −20° C. […] Peptide was detected with an ultraviolet (UV) detector set at a wavelength of 210 nm. […] Table I, moreover, provides the standard deviations for the data obtained regarding each of the test rats, which standard deviations are also indicated in FIG. 1.
Table II (below) summarizes the pharmacokinetic parameters in rats of orally administered unformulated and formulated Dmt-DALDA as those terms are defined above. Cmax refers to the maximum concentration of peptide detected in the rat plasma. The area under the curve (AUC) is a measure of the extent of peptide absorption and is calculated by the trapezoidal rule from a plot of peptide concentration as a function of time. Tmax indicates when the maximum concentration of the Dmt-DALDA in the blood serum was obtained.

## Cc1cc(O)cc(C)c1C[C@H](N)C(=O)N[C@H](CCCNC(=N)N)C(=O)N[C@@H](Cc1ccccc1)C(=O)N[C@@H](CCCCN)C(N)=O [unformulated]
Avg (n = 3)
  Tmax: 5.00 min
In vivo, 1.12 mg, Red rat, read-out: Tmax (converted)
  Tmax: 5 min
In vivo, 1.12 mg, Avg (n = 3)
  Cmax: 510 ng/mL
  AUC: 64 ng·h/mL
In vivo, 1.12 mg, Red rat
  Cmax: 1540 ng/mL
  AUC: 192 ng·h/mL
Rats given unformulated Dmt-DALDA
  Dmt-DALDA detected in plasma: virtually undetectable
Avg of rats, 0 min
  Dmt-DALDA plasma concentration: 0.00 µg/mL
Avg of rats, 15 min
  Dmt-DALDA plasma concentration: 0.00 µg/mL
Avg of rats, 30 min
  Dmt-DALDA plasma concentration: 0.00 µg/mL
Avg of rats, 60 min
  Dmt-DALDA plasma concentration: 0.00 µg/mL
Avg of rats, 120 min
  Dmt-DALDA plasma concentration: 0.00 µg/mL
Blue rat, 0 min
  Dmt-DALDA plasma concentration: 0.00 µg/mL
Blue rat, 5 min
  Dmt-DALDA plasma concentration: 0.00 µg/mL
Blue rat, 15 min
  Dmt-DALDA plasma concentration: 0.00 µg/mL
Blue rat, 30 min
  Dmt-DALDA plasma concentration: 0.00 µg/mL
Blue rat, 60 min
  Dmt-DALDA plasma concentration: 0.00 µg/mL
Blue rat, 120 min
  Dmt-DALDA plasma concentration: 0.00 µg/mL
Red rat, 0 min
  Dmt-DALDA plasma concentration: 0.00 µg/mL
Red rat, 15 min
  Dmt-DALDA plasma concentration: 0.00 µg/mL
Red rat, 30 min
  Dmt-DALDA plasma concentration: 0.00 µg/mL
Red rat, 60 min
  Dmt-DALDA plasma concentration: 0.00 µg/mL
Red rat, 120 min
  Dmt-DALDA plasma concentration: 0.00 µg/mL
White rat, 0 min
  Dmt-DALDA plasma concentration: 0.00 µg/mL
White rat, 5 min
  Dmt-DALDA plasma concentration: 0.00 µg/mL
White rat, 15 min
  Dmt-DALDA plasma concentration: 0.00 µg/mL
White rat, 30 min
  Dmt-DALDA plasma concentration: 0.00 µg/mL
White rat, 60 min
  Dmt-DALDA plasma concentration: 0.00 µg/mL
White rat, 120 min
  Dmt-DALDA plasma concentration: 0.00 µg/mL
